Results on one compound are retold here after article PMC10692375 (Acta Pharmaceutica Sinica. B, 2023).

The experiment deals with 22Rv1 xenografts. Kind of experiment: 22Rv1 xenograft model. The class given is in vivo, mice. Particulars: DD1-Br 0.1 mg/kg i.p., ENZ 10 mg/kg p.o., alone or combined, 5 times a week.

Turning to `CNC(=O)c1ccc(N2C(=S)N(c3ccc(C#N)c(C(F)(F)F)c3)C(=O)C2(C)C)cc1F` [ENZ, enzalutamide], the tumor growth entry was “did not show significant effect”.
